We go through 17 molecules from patent publication US20250179066A1, “ZWITTERIONIC ANTIBACTERIAL COMPOUNDS” (Hoffmann-La Roche Inc., priority 2022, published 2025).

Each structure is given as a SMILES string. Where a name gives a salt, the structure may show the parent alone.

One experiment has as its system Acinetobacter baumannii ATCC17961. Put plainly: Antimicrobial susceptibility testing: 90% growth inhibitory concentration (IC90) determination. Format: cell-based. The following applies: 90% growth inhibitory concentration against Acinetobacter baumannii ATCC17961, Iso-Sensitest broth, OD 600 nm over 16 h; read-out: ATCC 17961 IC90. An outline of the steps: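 OD600 monitored each minute over 16 h at 35±2° C for bacteria (~5×10^5 CFU/mL final) in Iso-Sensitest medium with 10-point twofold compound series (e.g. 10-0.0195 μM final). Concentration giving 90% growth inhibition in log phase reported as IC90.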
For the molecule `Cn1c(-c2cn(-c3ccc(NCCN)cn3)nc2C(F)(F)F)cnc1C(=O)Nc1ccc(C(=O)N2CCN(C(=O)[C@H]3CC[N@+](CC(=O)O)(CC4CNC4)CC3)CC2)c(Cl)c1` [Example 73, cis-2-[4-[4-[4-[[5-[1-[5-(2-aminoethylamino)-2-pyridyl]-3-(trifluoromethyl)pyrazol-4-yl]-1-methyl-imidazole-2-carbonyl]amino]-2-chloro-benzoyl]piperazine-1-carbonyl]-1-(azetidin-3-ylmethyl)piperidin-1-ium-1-yl]acetic acid; formic acid; formate], the IC90 (commonly the point of the concentration-response curve where the effect stands at 90%) amounted to 870 nM.

Staying with this experiment, now noted: Acinetobacter baumannii, ATCC17961, 16 h, 90% growth inhibitory concentration against Acinetobacter baumannii ATCC17961, Iso-Sensitest broth, OD 600 nm over 16 h; read-out: ATCC 17961 IC90.
For the molecule `Cn1c(-c2cn(-c3ccc(N)cn3)nc2C(F)(F)F)cnc1C(=O)Nc1ccc(C(=O)N2CCN(C(=O)NCCCc3cc[n+](CC(=O)O)c(CCCN)c3)CC2)c(Cl)c1` [Example 70, 2-[2-(3-Aminopropyl)-4-[3-[[4-[4-[[5-[1-(5-amino-2-pyridyl)-3-(trifluoromethyl)pyrazol-4-yl]-1-methyl-imidazole-2-carbonyl]amino]-2-chloro-benzoyl]piperazine-1-carbonyl]amino]propyl]pyridin-1-ium-1-yl]acetic Acid.1:1 2,2,2-trifluoroacetic Acid.1:1 2,2,2-trifluoroacetate], the concentration for an effect of 90% (IC90) turned out to be 850 nM.

With `Cn1c(-c2cn(-c3cc(N)ccn3)nc2C(F)(F)F)cnc1C(=O)Nc1ccc(C(=O)N2CCN(C(=O)C3CC[N+](CC(=O)O)(CC4CNC4)CC3)CC2)c(Cl)c1` (centres unmarked) [Example 71, 2-[4-[4-[4-[[5-[1-(4-amino-2-pyridyl)-3-(trifluoromethyl)pyrazol-4-yl]-1-methyl-imidazole-2-carbonyl]amino]-2-chloro-benzoyl]piperazine-1-carbonyl]-1-(azetidin-3-ylmethyl)piperidin-1-ium-1-yl]acetic acid. 1:1 2,2,2-trifluoroacetate], the concentration for an effect of 90% (IC90) came out at 860 nM.

For `Cn1c(-c2cn(-c3ccc(N)cn3)nc2C(F)(F)F)cnc1C(=O)Nc1ccc(C(=O)N2CCN(C(=O)CCCN(CCCN)CC(=O)O)CC2)c(Cl)c1` [Example 72, 2-[3-aminopropyl-[4-[4-[4-[[5-[1-(5-amino-2-pyridyl)-3-(trifluoromethyl)pyrazol-4-yl]-1-methyl-imidazole-2-carbonyl]amino]-2-chloro-benzoyl]piperazino]-4-keto-butyl]amino]acetic acid. 1:1 2,2,2-trifluoroacetic acid], the IC90 worked out at 870 nM.

`Cn1c(-c2cn(-c3ccnc(N)c3)nc2C(F)(F)F)cnc1C(=O)Nc1ccc(C(=O)N2CCN(C(=O)C3CC[N+](CC(=O)O)(CC4CNC4)CC3)CC2)c(Cl)c1` (centres unmarked) [Example 74, 2-[4-[4-[4-[[5-[1-(2-amino-4-pyridyl)-3-(trifluoromethyl)pyrazol-4-yl]-1-methyl-imidazole-2-carbonyl]amino]-2-chloro-benzoyl]piperazine-1-carbonyl]-1-(azetidin-3-ylmethyl)piperidin-1-ium-1-yl]acetic acid. 1:1 2,2,2-trifluoroacetate]: the concentration for an effect of 90% (IC90) amounted to 940 nM.

For `Cn1c(-c2cn(-c3ccc(N)cn3)nc2C(F)(F)F)cnc1C(=O)Nc1ccc(C(=O)N2CCC(C(=O)N3CC[N+](CCCN)(CC(=O)O)CC3)CC2)c(Cl)c1` [Example 75, 2-[1-(3-aminopropyl)-4-[1-[4-[[5-[1-(5-amino-2-pyridyl)-3-(trifluoromethyl)pyrazol-4-yl]-1-methyl-imidazole-2-carbonyl]amino]-2-chloro-benzoyl]piperidine-4-carbonyl]piperazin-1-ium-1-yl]acetic acid. 1:1 2,2,2-trifluoroacetate], the concentration for an effect of 90% (IC90) is 950 nM.

With `Cn1c(-c2cn(-c3ccc(C#N)cn3)nc2C(F)(F)F)cnc1C(=O)Nc1ccc(C(=O)N2CCN(C(=O)C3CC[N+](CC(=O)O)(CC4CNC4)CC3)CC2)c(Cl)c1` (centres unmarked) [Example 76, 2-[1-(azetidin-3-ylmethyl)-4-[4-[2-chloro-4-[[5-[1-(5-cyano-2-pyridyl)-3-(trifluoromethyl)pyrazol-4-yl]-1-methyl-imidazole-2-carbonyl]amino]benzoyl]piperazine-1-carbonyl]piperidin-1-ium-1-yl]acetic acid. 1:1 formate], the IC90 turned out to be 1030 nM.

With `C[C@H]1CN(C(=O)c2ccc(NC(=O)c3ncc(-c4cn(-c5ccc(N)cn5)nc4C(F)(F)F)n3C)cc2Cl)CCN1C(=O)C1CC[N+](CC(=O)O)(CC2CNC2)CC1` (stereo partly drawn) [Example 77, 2-[4-[(2S)-4-[4-[[5-[1-(5-amino-2-pyridyl)-3-(trifluoromethyl)pyrazol-4-yl]-1-methyl-imidazole-2-carbonyl]amino]-2-chloro-benzoyl]-2-methyl-piperazine-1-carbonyl]-1-(azetidin-3-ylmethyl)piperidin-1-ium-1-yl]acetic acid. 1:1 formate], the 90% effect concentration (IC90) was found to be 1100 nM.

Regarding `CC[C@@H]1CN(C(=O)C2CC[N+](CC(=O)O)(CC3CNC3)CC2)CCN1C(=O)c1ccc(NC(=O)c2ncc(-c3cn(-c4ccc(N)cn4)nc3C(F)(F)F)n2C)cc1Cl` (stereo partly drawn) [Example 78, 2-[4-[(3R)-4-[4-[[5-[1-(5-amino-2-pyridyl)-3-(trifluoromethyl)pyrazol-4-yl]-1-methyl-imidazole-2-carbonyl]amino]-2-chloro-benzoyl]-3-ethyl-piperazine-1-carbonyl]-1-(azetidin-3-ylmethyl)piperidin-1-ium-1-yl]acetic acid. 1:1 formate], the IC90 was found to be 1110 nM.

As to `C[C@H]1CN(C(=O)C2CC[N+](CC(=O)O)(CC3CNC3)CC2)CCN1C(=O)c1ccc(NC(=O)c2ncc(-c3cn(-c4ccc(N)cn4)nc3C(F)(F)F)n2C)cc1Cl` (stereo partly drawn) [Example 79, 2-[4-[(3S)-4-[4-[[5-[1-(5-amino-2-pyridyl)-3-(trifluoromethyl)pyrazol-4-yl]-1-methyl-imidazole-2-carbonyl]amino]-2-chloro-benzoyl]-3-methyl-piperazine-1-carbonyl]-1-(azetidin-3-ylmethyl)piperidin-1-ium-1-yl]acetic acid. 1:1 formate], the IC90 is 1120 nM.

For `Cn1c(-c2cn(-c3nc4ccccc4s3)nc2C(F)(F)F)cnc1C(=O)Nc1ccc(C(=O)N2CCN(C(=O)C3CC[N+](CC(=O)O)(CC4CNC4)CC3)CC2)c(Cl)c1` (centres unmarked) [Example 80, 2-[1-(azetidin-3-ylmethyl)-4-[4-[4-[[5-[1-(1,3-benzothiazol-2-yl)-3-(trifluoromethyl)pyrazol-4-yl]-1-methyl-imidazole-2-carbonyl]amino]-2-chloro-benzoyl]piperazine-1-carbonyl]piperidin-1-ium-1-yl]acetic acid. 1:1 formate], the 90% effect concentration (IC90) was 1200 nM.

Regarding `Cn1c(-c2cn(-c3ccc(N)cn3)nc2C(F)(F)F)cnc1C(=O)Nc1ccc(C(=O)N2CCN(C(=O)[C@@H](N)CCCCNCC(=O)O)CC2)c(Cl)c1` [Example 81, 2-[[(5S)-amino-6-[4-[4-[[5-[1-(5-amino-2-pyridyl)-3-(trifluoromethyl)pyrazol-4-yl]-1-methyl-imidazole-2-carbonyl]amino]-2-chloro-benzoyl]piperazino]-6-keto-hexyl]amino]acetic acid. 1:1 2,2,2-trifluoroacetic acid], the IC90 is 1210 nM.

For `COc1ccc(-n2cc(-c3cnc(C(=O)Nc4ccc(C(=O)N5CCN(C(=O)C6CC[N+](CC(=O)O)(CC7CNC7)CC6)CC5)c(Cl)c4)n3C)c(C(F)(F)F)n2)cn1` (centres unmarked) [Example 82, 2-[1-(azetidin-3-ylmethyl)-4-[4-[2-chloro-4-[[5-[1-(6-methoxy-3-pyridyl)-3-(trifluoromethyl)pyrazol-4-yl]-1-methyl-imidazole-2-carbonyl]amino]benzoyl]piperazine-1-carbonyl]piperidin-1-ium-1-yl]acetic acid. 1:1 2,2,2-trifluoroacetate], the IC90 was 1220 nM.

In the case of `Cn1c(-c2cn(-c3ccc(N)cn3)nc2C(F)(F)F)cnc1C(=O)Nc1ccc(C(=O)N2CCN(C(=O)C[C@H](N)C(=O)O)CC2)c(Cl)c1` [Example 83, (2S)-2-amino-4-[4-[4-[[5-[1-(5-amino-2-pyridyl)-3-(trifluoromethyl)pyrazol-4-yl]-1-methyl-imidazole-2-carbonyl]amino]-2-chloro-benzoyl]piperazino]-4-keto-butyric acid. 1:1 2,2,2-trifluoroacetic acid], the 90% effect concentration (IC90) was 1240 nM.

With `CN(C)Cc1ccc(-n2cc(-c3cnc(C(=O)Nc4ccc(C(=O)N5CCN(C(=O)C6CC[N+](CC(=O)O)(CC7CNC7)CC6)CC5)c(Cl)c4)n3C)c(C(F)(F)F)n2)nc1` (centres unmarked) [Example 84, 2-[1-(azetidin-3-ylmethyl)-4-[4-[2-chloro-4-[[5-[1-[5-[(dimethylamino)methyl]-2-pyridyl]-3-(trifluoromethyl)pyrazol-4-yl]-1-methyl-imidazole-2-carbonyl]amino]benzoyl]piperazine-1-carbonyl]piperidin-1-ium-1-yl]acetic acid. 1:1 formic acid. 1:1 formate], the concentration for an effect of 90% (IC90) stood at 1280 nM.

For `Cn1c(-c2cn(-c3ccc(N)cn3)nc2C(F)(F)F)cnc1C(=O)Nc1ccc(C(=O)N2CCN(C(=O)[C@H](N)CC(=O)O)CC2)c(Cl)c1` [Example 85, (3R)-3-amino-4-[4-[4-[[5-[1-(5-amino-2-pyridyl)-3-(trifluoromethyl)pyrazol-4-yl]-1-methyl-imidazole-2-carbonyl]amino]-2-chloro-benzoyl]piperazino]-4-keto-butyric acid. 1:1 2,2,2-trifluoroacetic acid], the IC90 came to 1360 nM.

Consider `Cn1c(-c2cn(-c3ccc(N)cn3)nc2C(F)(F)F)cnc1C(=O)Nc1ccc(C(=O)N2CCN(C(=O)C3CC[N+](CC(=O)O)(CC4CNC4)CC3)C3(CC3)C2)c(Cl)c1` (centres unmarked) [Example 86, 2-[4-[7-[4-[[5-[1-(5-amino-2-pyridyl)-3-(trifluoromethyl)pyrazol-4-yl]-1-methyl-imidazole-2-carbonyl]amino]-2-chloro-benzoyl]-4,7-diazaspiro[2.5]octane-4-carbonyl]-1-(azetidin-3-ylmethyl)piperidin-1-ium-1-yl]acetic acid. 1:1 formate], for which the IC90 turned out to be 1370 nM.
